One assay has as its system MEDI-524 (Numax™). Put plainly: Binding ELISA of F-peptides. To be noted: peptide coated on plate. As for the experimental part: Based in part upon the results of the MARM analysis above, F peptides were synthesized (done by AnaSpec, Inc. San Jose, Calif.). Each well of the assay plate was coated with […] of […] of a particular soluble RSV F-Peptide overnight at 2-8° C. After the plate was aspirated and washed with PBS/0.05% Tween-20 buffer, it was blocked by incubating with PBS/0.05% Tween-20/0.5% BSA buffer for one hour at ambient temperature. The plate was washed and MEDI-524 standard curve samples, test samples, MEDI-524 Reference Standard, and negative control were added to the washed plate. Following a one-hour incubation at ambient temperature, the plate was washed, and […] of a goat anti-human IgG-HRP (horseradish peroxidase) at 1:16,000 dilution was added to the plate. After washing, […] of 3,3′,5,5′-tetramethylbenzidine (TMB) substrate was then added to the plate and incubated at ambient temperature protected from light for 10 minutes. The enzymatic reaction was stopped by adding […] of 2N H2SO4, and the absorbance at 450 nm was measured using a microplate reader. […] After meeting all system suitability requirements, as well as meeting the criteria of the parallelism test, the ED50 ratio of the test sample to Reference Standard was calculated, and the results were expressed as a percentage of the Reference Standard binding activity. […]
On the technique in general: In an ELISA, binding on a coated surface is turned into a signal by an enzyme label.

The test system of another assay is MEDI-524 Mab. Nature of the assay: Isothermal titration calorimetry (ITC) of F peptides with MEDI-524 Mab. To be noted: 25 mM His, pH 6, 10° C. It counts as binding. The text has this:
Isothermal Titration calorimetry assays (ITC) have been described (see, for example, Heerklotz H et al., Biophysical Journal, May 1999). Molecular interactions are defined by stoichiometry and a few thermodynamic parameters. All binding reactions are associated with the absorption or generation of heat. Therefore calorimetry is emerging as a premier tool for the characterisation of interactions of biological macromolecules. ITC is the only method that measures equilibrium constants, enthalpy and entropy in one single experiment. If the experiment is performed at different temperatures the important parameter, the heat capacity change, can be determined. ITC has become a standard method for investigating the binding of ligands to receptor molecules. Accordingly, ligands are mixed with receptors, and the subsequent heats of incorporation (or binding) are measured.
To evaluate the binding properties of the wild-type peptide (SEQ ID NO.28) to Numax™/MEDI-524 by using the ITC technique. The MEDI-524 Mab was titrated with SEQ ID NO.28 in the basis buffer 25 mM His, pH 6 at 10° C. SEQ ID NO.28: (MW=2732.14, no W, Y, or C). A working solution of 55 μM was prepared by diluting 30 μL of a 5 mg/mL peptide solution with 970 μL, of 25 mM His, pH 6 buffer to be used for the ITC titrations. A 1.15 μM (0.1706 mg/ml) working solution of MEDI-524 was used for the experiments (MW 148400, A280=1.47). […]
For orientation: In ITC the heat of successive injections is recorded.

With “F peptide with a histidine at position 262: F peptide with a histidine at position 262; SEQ ID number not stated (SEQ ID No: 13, 25 and 26 carry it) (NSELLSLIHDMPITNDQKKLMSNN)”, in the assay with MEDI-524 (Numax™), the “Binding to Numax™ compared with wild-type F protein epitope (SEQ ID NO. 1)” value is “more tightly”. As to “NSELLSLINDMPITNDQKKLMSNN-NH2 [SEQ ID NO.28]”, the “binding strength lower compared to the SEQ ID NO.24 peptide” value in the assay with MEDI-524 Mab was ~3 orders of magnitude.

The values are drawn from US9499590B2, “Antibodies against and methods for producing vaccines for respiratory syncytial virus” (MEDIMMUNE, LLC, priority 2009, dated 2016).
